Measured values as given in article PMC3853768 (Molecular Pain, 2013).
“Also recorded” adds a separate entry of the source. Positions of bridges follow the written chain, without caps; N, C: chain ends. Residues, ends and D or L forms follow the SMILES beside them.

What was measured:
[1] = target: T1, N-type calcium currents (Cav2.2), mouse DRG neurons (Mus musculus, UniProt O55017); assay type: cell-based
[2] = system: N-type calcium channels with auxiliary subunits; details: cited from earlier work
[3] = target: T1, N-type calcium currents (Cav2.2), mouse DRG neurons; assay type: cell-based; remark: listed apart in the source
Cav2.2 channel = details: cited from earlier work
[4] = system: excitatory monosynaptic transmission in the dorsal horn of the spinal cord; details: cited from earlier work
naïve mice (C57Bl/6j) [5] = details: mouse, in vivo, sc, 2 mg/kg
naïve mice (C57Bl/6j) [6] = details: mouse, in vivo, sc, 2 mg/kg; remark: listed apart in the source
[7] = system: CFA-injected mice (C57 Bl6); details: mouse, in vivo
mice (C57 Bl6) = details: mouse, in vivo, sc
[8] = system: N-type VGCCs over the P/Q-type (Cav2.1); details: cited from earlier work
[9] = system: CFA-injected mice (C57 Bl6); details: mouse, in vivo; remark: listed apart in the source
rat = details: in vivo, iv; cited from earlier work

T1 sequence (O55017 whole entry): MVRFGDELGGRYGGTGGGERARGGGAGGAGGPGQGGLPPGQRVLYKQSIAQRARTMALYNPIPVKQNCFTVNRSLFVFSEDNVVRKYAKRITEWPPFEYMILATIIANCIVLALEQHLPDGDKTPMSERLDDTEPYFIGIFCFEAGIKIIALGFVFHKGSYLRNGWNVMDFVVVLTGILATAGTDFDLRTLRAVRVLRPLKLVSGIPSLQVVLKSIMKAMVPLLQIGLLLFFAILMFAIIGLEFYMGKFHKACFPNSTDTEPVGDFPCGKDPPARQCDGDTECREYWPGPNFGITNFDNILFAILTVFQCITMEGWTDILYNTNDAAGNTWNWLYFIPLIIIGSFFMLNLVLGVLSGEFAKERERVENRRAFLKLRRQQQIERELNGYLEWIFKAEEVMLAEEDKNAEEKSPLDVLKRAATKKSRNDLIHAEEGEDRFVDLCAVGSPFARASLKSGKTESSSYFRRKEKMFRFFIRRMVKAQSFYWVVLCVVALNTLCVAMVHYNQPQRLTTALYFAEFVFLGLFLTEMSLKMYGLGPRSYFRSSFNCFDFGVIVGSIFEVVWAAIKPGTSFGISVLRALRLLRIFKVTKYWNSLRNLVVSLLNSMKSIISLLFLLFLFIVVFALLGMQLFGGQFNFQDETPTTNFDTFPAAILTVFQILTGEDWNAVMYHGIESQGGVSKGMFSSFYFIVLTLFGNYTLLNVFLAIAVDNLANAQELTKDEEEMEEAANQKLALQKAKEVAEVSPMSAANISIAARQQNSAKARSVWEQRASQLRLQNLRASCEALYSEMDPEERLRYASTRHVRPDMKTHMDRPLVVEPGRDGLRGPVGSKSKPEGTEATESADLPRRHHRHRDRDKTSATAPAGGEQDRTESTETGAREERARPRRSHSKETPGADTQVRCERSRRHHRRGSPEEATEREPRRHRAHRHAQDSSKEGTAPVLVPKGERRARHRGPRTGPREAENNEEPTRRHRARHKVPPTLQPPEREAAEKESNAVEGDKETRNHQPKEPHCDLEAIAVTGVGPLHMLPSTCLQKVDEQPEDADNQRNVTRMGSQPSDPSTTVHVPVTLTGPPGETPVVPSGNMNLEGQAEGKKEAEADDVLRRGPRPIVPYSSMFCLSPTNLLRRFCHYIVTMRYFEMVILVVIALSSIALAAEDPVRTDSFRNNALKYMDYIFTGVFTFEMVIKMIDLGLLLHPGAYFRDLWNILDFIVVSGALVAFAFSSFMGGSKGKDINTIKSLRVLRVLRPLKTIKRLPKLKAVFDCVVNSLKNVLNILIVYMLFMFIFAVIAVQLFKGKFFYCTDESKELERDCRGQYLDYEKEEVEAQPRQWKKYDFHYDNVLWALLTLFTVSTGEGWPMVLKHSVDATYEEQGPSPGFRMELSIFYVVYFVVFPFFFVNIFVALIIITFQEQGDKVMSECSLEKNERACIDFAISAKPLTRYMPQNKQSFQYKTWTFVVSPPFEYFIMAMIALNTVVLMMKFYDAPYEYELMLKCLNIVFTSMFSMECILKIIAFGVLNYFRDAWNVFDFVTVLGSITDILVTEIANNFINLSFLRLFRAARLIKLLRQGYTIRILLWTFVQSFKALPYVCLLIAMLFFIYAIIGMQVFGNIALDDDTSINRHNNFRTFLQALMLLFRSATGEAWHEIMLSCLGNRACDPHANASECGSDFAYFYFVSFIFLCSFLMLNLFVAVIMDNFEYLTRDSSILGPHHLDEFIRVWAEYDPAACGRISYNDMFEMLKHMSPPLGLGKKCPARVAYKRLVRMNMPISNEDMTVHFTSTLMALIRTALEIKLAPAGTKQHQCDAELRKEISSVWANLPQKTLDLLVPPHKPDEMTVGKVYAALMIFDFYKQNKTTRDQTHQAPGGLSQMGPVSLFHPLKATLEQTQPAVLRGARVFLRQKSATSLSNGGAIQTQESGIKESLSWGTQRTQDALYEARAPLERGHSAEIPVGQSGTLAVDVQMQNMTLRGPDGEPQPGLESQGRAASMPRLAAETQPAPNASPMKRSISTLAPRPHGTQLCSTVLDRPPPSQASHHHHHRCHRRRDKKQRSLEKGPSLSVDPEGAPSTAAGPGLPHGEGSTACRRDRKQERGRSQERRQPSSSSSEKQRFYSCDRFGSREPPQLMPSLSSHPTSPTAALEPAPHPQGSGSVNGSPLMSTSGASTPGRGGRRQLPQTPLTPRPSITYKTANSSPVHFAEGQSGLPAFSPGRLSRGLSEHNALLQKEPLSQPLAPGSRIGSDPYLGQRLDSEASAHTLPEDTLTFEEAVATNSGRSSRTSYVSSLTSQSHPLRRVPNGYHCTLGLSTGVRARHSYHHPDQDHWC

SMILES	maximal inhibition relative to CVID [1]	recovery from block in presence of β2a compared to β3 subunits [2]	reversibility of ICa block [3]	inhibition of Cav2.2 channel currents (Cav2.2 channel)	inhibition of excitatory monosynaptic transmission [4]	Rotarod performance, End rate (naïve mice (C57Bl/6j) [5]) [rpm]	Rotarod performance, Time to fall (naïve mice (C57Bl/6j) [5]) [s]	Grip strength, Peak tension (naïve mice (C57Bl/6j) [6]) [g]	Grip strength, Tension/weight (naïve mice (C57Bl/6j) [6])	rank order of potency to inhibit N-type calcium currents [1]	recovery from block, 30 min [3]	ceiling effect [7]	side-effects after systemic administration (mice (C57 Bl6))	further results
CC(C)C[C@@H]1NC(=O)[C@H](CCCNC(=N)N)NC(=O)[C@@H]2CSSC[C@@H]3NC(=O)[C@H](CO)NC(=O)[C@H](C)NC(=O)CNC(=O)[C@H](CCCCN)NC(=O)CNC(=O)[C@H](CCCCN)NC(=O)[C@@H](N)CSSC[C@H](NC(=O)[C@H](CSSC[C@@H](C(N)=O)NC(=O)[C@H](CCCNC(=N)N)NC(=O)CNC1=O)NC(=O)[C@H](CC(=O)O)NC(=O)[C@H](Cc1ccc(O)cc1)NC(=O)[C@H](CO)NC(=O)[C@H]([C@@H](C)O)NC(=O)[C@H](CCCNC(=N)N)NC(=O)[C@H](CCCNC(=N)N)NC3=O)C(=O)N[C@@H]([C@@H](C)O)C(=O)NCC(=O)N[C@@H](CO)C(=O)N2 [CVIF] (H-CKGKGASCRRTSYDCCTGSCRLGRC-NH2; disulfide 1-16, 8-20, 15-25)	very similar to that of CVID	much greater	partially reversible; also recorded: Partial recovery	potently and reversibly inhibited	reversibly inhibited	17 ± 1.0	36 ± 3.0	121 ± 7.7	5.4 ± 0.4					
C[C@@H]1NC(=O)CNC(=O)[C@H](CCCCN)NC(=O)CNC(=O)[C@H](CCCCN)NC(=O)[C@@H](N)CSSC[C@@H]2NC(=O)[C@@H]3CSSC[C@@H](C(N)=O)NC(=O)[C@H](CCCNC(=N)N)NC(=O)CNC(=O)[C@H](CO)NC(=O)[C@H](CCCNC(=N)N)NC(=O)[C@H](CSSC[C@H](NC(=O)[C@H](CO)NC1=O)C(=O)N[C@@H](CCCNC(=N)N)C(=O)N[C@@H](CCCNC(=N)N)C(=O)N[C@@H]([C@@H](C)O)C(=O)N[C@@H](CO)C(=O)N[C@@H](Cc1ccc(O)cc1)C(=O)N[C@@H](CC(=O)O)C(=O)N3)NC(=O)[C@H](CO)NC(=O)CNC(=O)[C@H]([C@@H](C)O)NC2=O [CVIE]	very similar to that of CVID	much greater	completely irreversible; also recorded: no recovery was observed	potently and reversibly inhibited	reversibly inhibited	17 ± 1.4	36 ± 4.1	121 ± 6.9	5.5 ± 0.3	most potent	no recovery was observed	not seen with CVIE; also recorded: did not appear to reach a ceiling at the highest dose tested	not accompanied by side-effects such as motor deficits or sedation	potency at ICa inhibition compared to CVID [1]: more than ten-fold compared to CVID; overall significance of AUC data, doses ([7]; sc): 2.0 mg/kg; potency versus CVID (AUC) ([7]; sc): not CVID at any dose; reversal of incapacitance relative to another peptide (CVIE vs CVID) ([7]; sc): did not reveal any significant differences; also recorded: not significantly greater than CVID
CSCC[C@@H]1NC(=O)[C@H](CC(C)C)NC(=O)[C@H](CCCCN)NC(=O)[C@H](CO)NC(=O)[C@@H]2CSSC[C@@H]3NC(=O)[C@H](CO)NC(=O)CNC(=O)[C@H](CO)NC(=O)[C@H](CSSC[C@H](N)C(=O)N[C@@H](CCCCN)C(=O)N[C@@H](CO)C(=O)N[C@@H](CCCCN)C(=O)NCC(=O)N[C@@H](C)C(=O)N[C@@H](CCCCN)C(=O)N2)NC(=O)[C@H](CSSC[C@@H](C(N)=O)NC(=O)[C@H](CCCNC(=N)N)NC(=O)CNC(=O)[C@H](C(C)C)NC(=O)[C@H]([C@@H](C)O)NC(=O)CNC(=O)[C@H](CO)NC3=O)NC(=O)[C@H](CC(=O)O)NC(=O)[C@H](Cc2ccc(O)cc2)NC1=O [CVID] (H-CKSKGAKCSKLMYDCCSGSCSGTVGRC-NH2; disulfide 1-16, 8-20, 15-27)			completely irreversible; also recorded: no recovery was observed			18 ± 1.4	40 ± 4.1	121 ± 5.7	5.7 ± 0.3	least potent	no recovery was observed	reaching a ceiling effect	not accompanied by side-effects such as motor deficits or sedation	selectivity for N-type VGCCs over P/Q-type [8]: higher selectivity for N-type VGCCs over the P/Q-type (Cav2.1); selectivity for N-type calcium channels [8]: high selectivity for N-type calcium channels; Log [IC50] [1]: -7.12 ± 0.04; Maximal Inhibition of ICa [1]: 52 ± 2 % of total; block of high-voltage activated ICa [1]: block of high-voltage activated ICa; inhibition of total ICa (Figure 1B) [1]: about 40%; Recovery from block [3]: -1 ± 5 % of inhibition; effect on automated von Frey and incapacitance measures: incapacitance [7]: both measures appeared to be sensitive to subcutaneous injection of CVID; also recorded: partially reversed; reversal of incapacitance at peak time of action (2 h) [7]: significant reversal; dose at which response reaches a ceiling ([7]; sc): 0.2 mg/kg; peak time of action ([7]; sc): 2 h; reversibility of inhibition (Cav2.2 channel): irreversible inhibition; effect on automated von Frey measure [9]: both measures appeared to be sensitive to subcutaneous injection of CVID; also recorded: partially reversed; antihyperalgesic effects (rat): dose-dependent antihyperalgesic effects; cardiovascular side effects (rat): without serious cardiovascular side effects
